Laboratory results from the NIST ThermoML archive (doi:10.1021/je030106k).
Numbers after ± are expanded uncertainties.

Settings: Liquid

SMILES | vapor or sublimation pressure (273.15 K) [kPa] | vapor or sublimation pressure (283.15 K) [kPa] | vapor or sublimation pressure (293.15 K) [kPa] | vapor or sublimation pressure (303.15 K) [kPa]
CC(C)C [2-methylpropane] | 157.2 ± 1.6 | 221.8 ± 1.8 | 303.4 ± 2.1 | 405.2 ± 2.6
CCC [propane] | 475 ± 1.8 | 637.8 ± 2.2 | 836 ± 2.6 | 1078.4 ± 3.2
